In US8350007B2, “Crystal structure of human mitoNEET protein” (The Regents of the University of California, priority 2007, dated 2013):

Legend:
[1] = Blood glucose levels in diabetic ZDF rats treated with rosiglitazone; assay type: in vivo, rat; settings: after three weeks of rosiglitazone 10 mg/kg by gavage
Procedure: Sixteen male ZDF rats were housed in filter cages, 2 or 3 animals per cage. Weight and blood glucose levels were measured every week. The blood glucose was measured at the fed state (07:30 am) and after 6 hours fast (1:[…]). The Animals were divided into two groups: a control group, and a rosiglitazone-treated group. Animals were treated daily for 3 weeks once a day, 5 times a week, with rosiglitazone, 10 mg/kg by gavage (0.7 ml) for the rosi-treated rats; or 0.7 ml saline for the control rats. After three weeks, liver, muscle and epididymal fat were collected and immediately frozen.
The average glucose blood level after fed of the control group was >240 mg/dl; in the rosiglitazone-treated rats some responded in a medium manner to the treatment; after three weeks of rosiglitazone treatment their glucose blood levels after fed was ˜120-140 mg/dl and some rats responded very well to rosiglitazone treatment and after three weeks their glucose blood levels after fed was ˜80 mg/dl.

serum albumin = serum albumin (Homo sapiens, UniProt P02768); settings: after patient ingestion, prior to cellular uptake; cited from earlier work
Chain of serum albumin (P02768 25-609): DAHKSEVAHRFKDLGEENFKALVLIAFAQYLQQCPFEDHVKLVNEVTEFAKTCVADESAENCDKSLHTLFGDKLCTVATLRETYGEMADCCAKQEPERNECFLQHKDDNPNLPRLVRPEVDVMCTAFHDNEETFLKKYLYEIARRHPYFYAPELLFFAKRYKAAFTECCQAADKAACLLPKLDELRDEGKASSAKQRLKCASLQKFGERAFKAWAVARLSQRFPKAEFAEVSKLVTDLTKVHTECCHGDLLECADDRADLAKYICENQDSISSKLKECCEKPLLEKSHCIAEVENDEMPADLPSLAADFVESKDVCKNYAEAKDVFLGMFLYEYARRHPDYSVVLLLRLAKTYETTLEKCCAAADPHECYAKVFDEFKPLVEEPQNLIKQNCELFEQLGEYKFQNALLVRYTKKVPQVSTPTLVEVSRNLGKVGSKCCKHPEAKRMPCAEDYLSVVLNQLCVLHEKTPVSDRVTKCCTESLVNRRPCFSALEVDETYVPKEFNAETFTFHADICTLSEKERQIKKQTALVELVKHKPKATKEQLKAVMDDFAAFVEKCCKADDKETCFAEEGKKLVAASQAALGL

| SMILES | glucose blood levels after fed ([1]; ZDF rats responding in a medium manner) | glucose blood levels after fed ([1]; ZDF rats responding very well) | binding to serum albumin (serum albumin) |
| --- | --- | --- | --- |
| CN(CCOc1ccc(CC2SC(=O)NC2=O)cc1)c1ccccn1 (stereo not drawn) [rosiglitazone] | 120 to 140 mg/dL | ~80 mg/dL | – |
| CCc1ccc(CCOc2ccc(CC3SC(=O)NC3=O)cc2)nc1 (stereo not drawn) [pioglitazone] | – | – | largely bound to serum albumin |
